IC50 data for ten compounds are collected here from patent publication US20250270209A1 (INTERLINE THERAPEUTICS, INC., priority 2022, published 2025).

Assay [1] deals with LRRK2 wild type enzyme (Homo sapiens, UniProt Q5S007). Kind of assay: Biochemical Assay: LRRK2 TR-FRET (LanthaScreen) kinase assay with LRRKtide substrate. The following applies: LRRK2 Inhibition, Table 8. A digest of the protocol:
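Human wild-type LRRK2 (3 nM) preincubated 15 min with compound (11-point, 3-fold, top 10 μM), then reacted 120 min at 23 °C with 400 nM LRRKtide and 25 μM ATP, pH 8.0. Stopped with EDTA; Tb-anti-pLRRKtide TR-FRET read after 30 min.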

In assay [2] the target is T1, wild type LRRK2 overexpressed in recombinant HEK-293T cells (Homo sapiens, UniProt Q5S007).
T1 construct: host or cells: HEK293T (transient transfection with pCMV-LRRK2 WT plasmid)
T1 sequence (Q5S007 whole entry): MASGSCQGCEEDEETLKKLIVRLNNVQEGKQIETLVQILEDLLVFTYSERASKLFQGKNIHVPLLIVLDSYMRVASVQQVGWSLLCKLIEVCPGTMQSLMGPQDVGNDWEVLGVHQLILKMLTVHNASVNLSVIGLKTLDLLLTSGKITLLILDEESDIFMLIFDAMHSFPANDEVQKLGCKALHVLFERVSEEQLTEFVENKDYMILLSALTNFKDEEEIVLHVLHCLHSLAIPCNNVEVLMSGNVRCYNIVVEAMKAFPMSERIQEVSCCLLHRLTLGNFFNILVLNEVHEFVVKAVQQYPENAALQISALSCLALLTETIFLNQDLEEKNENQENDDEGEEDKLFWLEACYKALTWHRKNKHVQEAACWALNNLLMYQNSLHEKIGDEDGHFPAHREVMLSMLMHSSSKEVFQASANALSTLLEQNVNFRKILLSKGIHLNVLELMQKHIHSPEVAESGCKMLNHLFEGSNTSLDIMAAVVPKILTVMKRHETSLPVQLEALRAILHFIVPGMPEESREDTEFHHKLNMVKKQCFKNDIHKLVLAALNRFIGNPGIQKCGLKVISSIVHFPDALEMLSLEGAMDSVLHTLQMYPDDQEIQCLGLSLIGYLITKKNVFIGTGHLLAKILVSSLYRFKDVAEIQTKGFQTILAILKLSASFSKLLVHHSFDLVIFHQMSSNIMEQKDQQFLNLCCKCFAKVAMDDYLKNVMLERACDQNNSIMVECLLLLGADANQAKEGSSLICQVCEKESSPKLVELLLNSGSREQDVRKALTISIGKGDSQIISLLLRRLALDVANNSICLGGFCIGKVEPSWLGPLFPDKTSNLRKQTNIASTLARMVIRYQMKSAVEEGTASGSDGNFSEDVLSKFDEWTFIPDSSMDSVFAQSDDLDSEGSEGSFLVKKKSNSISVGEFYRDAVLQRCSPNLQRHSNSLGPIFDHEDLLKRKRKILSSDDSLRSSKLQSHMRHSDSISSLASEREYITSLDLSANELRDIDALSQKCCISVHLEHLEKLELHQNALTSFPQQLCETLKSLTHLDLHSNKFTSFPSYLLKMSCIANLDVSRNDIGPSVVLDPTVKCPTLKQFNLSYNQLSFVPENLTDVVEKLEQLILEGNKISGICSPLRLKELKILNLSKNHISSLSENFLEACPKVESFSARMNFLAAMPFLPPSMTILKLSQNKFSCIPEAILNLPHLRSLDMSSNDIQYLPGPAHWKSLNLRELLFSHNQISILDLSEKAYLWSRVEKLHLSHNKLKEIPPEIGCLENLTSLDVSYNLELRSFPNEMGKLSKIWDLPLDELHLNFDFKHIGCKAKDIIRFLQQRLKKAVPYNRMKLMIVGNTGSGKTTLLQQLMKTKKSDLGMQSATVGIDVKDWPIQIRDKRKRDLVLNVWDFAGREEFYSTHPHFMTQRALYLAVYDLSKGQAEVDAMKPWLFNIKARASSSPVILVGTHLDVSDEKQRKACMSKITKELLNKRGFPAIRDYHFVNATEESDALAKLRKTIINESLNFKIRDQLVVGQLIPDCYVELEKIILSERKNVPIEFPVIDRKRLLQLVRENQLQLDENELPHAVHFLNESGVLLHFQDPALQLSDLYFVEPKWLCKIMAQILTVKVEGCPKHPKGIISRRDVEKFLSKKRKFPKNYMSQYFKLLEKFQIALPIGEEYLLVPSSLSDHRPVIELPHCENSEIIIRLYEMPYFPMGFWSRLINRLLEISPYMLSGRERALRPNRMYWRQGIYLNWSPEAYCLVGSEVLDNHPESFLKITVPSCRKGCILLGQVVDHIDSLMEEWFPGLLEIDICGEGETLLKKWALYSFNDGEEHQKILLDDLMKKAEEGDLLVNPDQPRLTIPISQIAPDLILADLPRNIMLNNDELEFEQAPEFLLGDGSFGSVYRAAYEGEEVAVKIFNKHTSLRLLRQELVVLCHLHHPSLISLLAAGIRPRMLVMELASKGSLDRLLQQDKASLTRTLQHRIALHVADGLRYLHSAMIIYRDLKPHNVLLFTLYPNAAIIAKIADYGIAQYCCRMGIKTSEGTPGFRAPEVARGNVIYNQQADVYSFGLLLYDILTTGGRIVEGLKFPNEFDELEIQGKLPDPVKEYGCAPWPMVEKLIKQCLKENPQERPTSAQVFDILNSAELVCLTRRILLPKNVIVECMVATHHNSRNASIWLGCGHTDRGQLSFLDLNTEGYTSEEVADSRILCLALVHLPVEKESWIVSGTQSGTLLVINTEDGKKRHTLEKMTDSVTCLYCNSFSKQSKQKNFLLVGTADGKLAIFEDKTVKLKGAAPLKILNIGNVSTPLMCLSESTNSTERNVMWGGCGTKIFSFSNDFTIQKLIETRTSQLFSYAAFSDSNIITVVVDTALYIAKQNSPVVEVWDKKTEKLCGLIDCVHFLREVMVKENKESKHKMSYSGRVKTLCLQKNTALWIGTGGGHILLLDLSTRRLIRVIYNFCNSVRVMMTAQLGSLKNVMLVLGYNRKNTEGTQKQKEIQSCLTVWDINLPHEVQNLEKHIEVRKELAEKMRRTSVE
Kind of assay: pS935 LRRK2 Cell Assay (HTRF, phospho-LRRK2 Ser935). It is filed as cell-based. The following applies: LRRK2 Inhibition, Table 8, 2 hours compound incubation. A digest of the protocol:
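HEK-293T cells transiently transfected with wild-type LRRK2 for 24 h, plated overnight, then treated 2 h at 37° C with compound (top 10 μM, 3-fold, 9 doses, duplicates, 0.2% DMSO). Lysates probed overnight at 23° C by sandwich HTRF for pSer935; 665/615 nm ratio read.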
Background: Time-resolved FRET reads energy transfer from a long-lived donor to a nearby acceptor.

pIC50: −log10 of the molar value.

What is called pIC50 is the IC50 on a negative log10 scale, so that one unit is a factor of ten.

LRRK2 wild type enzyme, sequence (Q5S007 whole entry): as above

In the case of `COc1ncccc1NC(=O)Cc1nc2cnc3ccc(C#N)cc3c2n1[C@@H]1CCO[C@H](C)C1` [Compound 318, N-(2-methoxy-3-pyridyl){3-[(2R,4R)-2-methyltetrahydro-2H-pyran-4-yl]-12-cyano-3,5,8-triazatricyclo[7.4.0.0^2,6]trideca-1(9),2(6),4,7,10,12-hexaen-4-yl}acetamide], the values for the pIC50 in assay [1] and in assay [2] were 9.30 and 8.69, respectively.
In the case of `C[C@@H]1C[C@H](n2c(CC(=O)N[C@@H]3CCCc4cccnc43)nc3cnc4ccc(C#N)cc4c32)CCO1` [Compound 357, N-[(R)-5,6,7,8-tetrahydro-8-quinolyl]{3-[(2R,4R)-2-methyltetrahydro-2H-pyran-4-yl]-12-cyano-3,5,8-triazatricyclo[7.4.0.0^2,6]trideca-1(9),2(6),4,7,10,12-hexaen-4-yl}acetamide], the pIC50 in assay [1] was 9.20; in assay [2], 7.97.
In the same order, the values of `C[C@@H]1C[C@H](n2c(CC(=O)NC3CC3(C)C)nc3cnc4ccc(C#N)cc4c32)CCO1` (stereo partly drawn) [Compound 252, N-2,2-dimethylcyclopropyl{3-[(2R,4R)-2-methyltetrahydro-2H-pyran-4-yl]-12-cyano-3,5,8-triazatricyclo[7.4.0.0^2,6]trideca-1,4,6,8,10,12-hexaen-4-yl}acetamide] are 9.19 and 7.74.
`C[C@@H]1C[C@H](n2c(CNC(=O)OC3CC3)nc3cnc4ccc(C#N)cc4c32)CCO1` [Compound 10, cyclopropyl N-({8-cyano-1-[(2R,4R)-2-methyloxan-4-yl]-1H-imidazo[4,5-c]quinolin-2-yl}methyl)carbamate]: the pIC50 in assay [1] is 8.72; in assay [2] it was 6.78.
In the same order, the values of `C[C@@H]1C[C@H](n2c(CC(=O)NCC3CC3)nc3cnc4ccc(C#N)cc4c32)CCO1` [Compound 54, 2-{8-cyano-1-[(2R,4R)-2-methyloxan-4-yl]-1H-imidazo[4,5-c]quinolin-2-yl}-N-(cyclopropylmethyl)acetamide] are 9.47 and 7.83.
Taken in the same sequence, the figures for `Cc1cc(C)c(NC(=O)Cc2nc3cnc4ccc(C#N)cc4c3n2[C@@H]2CCO[C@H](C)C2)cn1` [Compound 236, N-(4,6-dimethyl-3-pyridyl){3-[(2R,4R)-2-methyltetrahydro-2H-pyran-4-yl]-12-cyano-3,5,8-triazatricyclo[7.4.0.0^2,6]trideca-1,4,6,8,10,12-hexaen-4-yl}acetamide] were 9.45 and 8.13.
Regarding `C[C@@H]1C[C@H](n2c(CC(=O)NCc3cccnn3)nc3cnc4ccc(Cl)cc4c32)CCO1` [Compound 148, 2-{8-chloro-1-[(2R,4R)-2-methyloxan-4-yl]-1H-imidazo[4,5-c]quinolin-2-yl}-N-[(pyridazin-3-yl)methyl]acetamide], the negative logarithm of the IC50 (pIC50) was 9.42 in assay [1] and 8.35 in assay [2].
Taken in the same sequence, the figures for `C[C@@H]1C[C@H](n2c(CN)nc3cnc4ccc(C#N)cc4c32)CCO1` [Compound 32, 2-(aminomethyl)-1-[(2R,4R)-2-methyloxan-4-yl]-1H-imidazo[4,5-c]quinoline-8-carbonitrile] were 8.26 and 6.37.
Taken in the same sequence, the figures for `C[C@@H]1C[C@H](n2c(CS(=O)(=O)C3CC3)nc3cnc4ccc(C5CC5)cc4c32)CCO1` [Compound 62, 2-[(cyclopropanesulfonyl)methyl]-8-cyclopropyl-1-[(2R,4R)-2-methyloxan-4-yl]-1H-imidazo[4,5-c]quinoline] were 7.79 and 5.90.
`CCn1cc(NC(=O)Cc2nc3cnc4ccc(C#N)cc4c3n2[C@@H]2CCO[C@H](C)C2)cn1` [Compound 310, N-(1-ethyl-4-pyrazolyl){3-[(2R,4R)-2-methyltetrahydro-2H-pyran-4-yl]-12-cyano-3,5,8-triazatricyclo[7.4.0.0^2,6]trideca-1,4,6,8,10,12-hexaen-4-yl}acetamide]: the figures for the pIC50 in assay [1] and in assay [2] were 9.15 and 7.81, respectively.
